Assay results taken from US8895561B2, “Compounds and methods for treating candidiasis and aspergillus infections” (Cellceutix Corporation, priority 2012, dated 2014).
≈ marks a conversion by molar mass, not a printed value.

Test system: C. albicans GDH2346 hyphal biofilm
Test: Candida IC50 in the hyphal state / hyphal biofilm, MTS viability assay
Format: cell-based
Conditions: Candida albicans, 48 h; 2-day hyphal biofilm cultures; read-out: Anti-C. albicans GDH2346 Hyphal (IC50)
Experimental: Candida IC50s were determined by OD600 and fluorescence from vegetative cells and by MTS viability assay in the hyphal state. MICs were determined using a broth microdilution assay under standard CLSI conditions Bacteria strains: E. coli 25922 (EC), S. aureus 27660 (SA), E. faecalis 29212 (EF), P. aeruginosa 10145 (PA), and K. pneumoniae 13883 (KP). Cytotoxicity (EC50) was determined against mouse 3T3 fibroblasts, human transformed liver HepG2 cells, and human oral keratinocyte cell line, OKF6/TERT using an MTS viability assay. Candida IC50s<10 μg/mL, MICs<5 μg/mL and cytotoxicity EC50s>100 μM are indicated in green. MICs>5 μg/mL and cytotoxicity EC50s<100 μM are indicated in red. To form the biofilm, yeast were grown in RPMI/MOPS, 0.4% sucrose pH7.4 media supplemented with 10% FBS in tissue culture-treated flat bottom 96 well plates for 48 hours. The filamentous yeast cultures were then vigorously washed to remove any non-filamentous, non-attached yeast. The remaining attached filamentous biofilm yeast were incubated in saline containing serially diluted compounds for 24 hours. The cultures were aspirated to remove compound, rinsed and overlayed with RPMI/MOPS, 0.4% sucrose pH7.4 media. Biofilm viability was measured using a cell proliferation assay (CellTiter96 Aqueous Kit from Promega) and IC50s were determined using Prism GraphPad software (nonlinear fit, Table 3).

Row | Compound | IC50 [mg/L]
1 | NCCCOc1cc(OCCCN)cc(-c2ccc3c(c2)c2cc(-c4cc(OCCCN)cc(OCCCN)c4)ccc2n3CCCN)c1 [Compound 135] | 2.68 (≈ 4.01 µM)

Same assay, conditions: Candida albicans; hyphal state; read-out: IC50 Candida, Hyphal

Row | Compound | IC50 [mg/L]
2 | NCCCOc1cc(OCCCN)cc(-c2ccc3c(c2)c2cc(-c4cc(OCCCN)cc(OCCCN)c4)ccc2n3CCCN)c1 [Compound 135] | 2.68 (≈ 4.01 µM)

Test system: E. coli 25922
Test: Bacterial MIC, broth microdilution, CLSI
Format: cell-based
Conditions: Escherichia coli; E. coli 25922
Experimental: (§1) Candida IC50s were determined by OD600 and fluorescence from vegetative cells and by MTS viability assay in the hyphal state. MICs were determined using a broth microdilution assay under standard CLSI conditions Bacteria strains: E. coli 25922 (EC), S. aureus 27660 (SA), E. faecalis 29212 (EF), P. aeruginosa 10145 (PA), and K. pneumoniae 13883 (KP). Cytotoxicity (EC50) was determined against mouse 3T3 fibroblasts, human transformed liver HepG2 cells, and human oral keratinocyte cell line, OKF6/TERT using an MTS viability assay. Candida IC50s<10 μg/mL, MICs<5 μg/mL and cytotoxicity EC50s>100 μM are indicated in green. MICs>5 μg/mL and cytotoxicity EC50s<100 μM are indicated in red. Candida IC50s (CA) were determined by OD600 and fluorescence from vegetative cells. MICs were determined using a broth microdilution assay under standard CLSI conditions Bacteria strains: E. coli 25922 (EC), S. aureus 27660 (SA), E. faecalis 29212 (EF), P. aeruginosa 10145 (PA), and K. pneumoniae 13883 (KP). Cytotoxicity (EC50) was determined against mouse 3T3 fibroblasts and human transformed liver HepG2 cells using an MTS viability assay.

Row | Compound | EC50 [mg/L]
3 | NCCCOc1cc(OCCCN)cc(-c2ccc3c(c2)c2cc(-c4cc(OCCCN)cc(OCCCN)c4)ccc2n3CCCN)c1 [Compound 135] | 6.25 (≈ 9.34 µM)

Test system: E. faecalis 29212
Test: Bacterial MIC, broth microdilution, CLSI
Format: cell-based
Conditions: Enterococcus faecalis; E. faecalis 29212
Experimental: as §1

Row | Compound | EC50 [mg/L]
4 | NCCCOc1cc(OCCCN)cc(-c2ccc3c(c2)c2cc(-c4cc(OCCCN)cc(OCCCN)c4)ccc2n3CCCN)c1 [Compound 135] | 12.5 (≈ 18.7 µM)

Test system: K. pneumoniae 13883
Test: Bacterial MIC, broth microdilution, CLSI
Format: cell-based
Conditions: Klebsiella pneumoniae
Experimental: as §1

Row | Compound | EC50 [mg/L]
5 | NCCCOc1cc(OCCCN)cc(-c2ccc3c(c2)c2cc(-c4cc(OCCCN)cc(OCCCN)c4)ccc2n3CCCN)c1 [Compound 135] | 12.5 (≈ 18.7 µM)

Test system: P. aeruginosa 10145
Test: Bacterial MIC, broth microdilution, CLSI
Format: cell-based
Conditions: Pseudomonas aeruginosa; P. aeruginosa 10145
Experimental: as §1

Row | Compound | EC50 [mg/L]
6 | NCCCOc1cc(OCCCN)cc(-c2ccc3c(c2)c2cc(-c4cc(OCCCN)cc(OCCCN)c4)ccc2n3CCCN)c1 [Compound 135] | > 50

Test system: S. aureus 27660
Test: Bacterial MIC, broth microdilution, CLSI
Format: cell-based
Conditions: Staphylococcus aureus; S. aureus 27660
Experimental: as §1

Row | Compound | EC50 [mg/L]
7 | NCCCOc1cc(OCCCN)cc(-c2ccc3c(c2)c2cc(-c4cc(OCCCN)cc(OCCCN)c4)ccc2n3CCCN)c1 [Compound 135] | 12.5 (≈ 18.7 µM)

Test system: human oral keratinocyte cell line, OKF6/TERT
Test: Cytotoxicity, MTS viability assay
Format: cell-based
Conditions: not given
Experimental: Candida IC50s were determined by OD600 and fluorescence from vegetative cells and by MTS viability assay in the hyphal state. MICs were determined using a broth microdilution assay under standard CLSI conditions Bacteria strains: E. coli 25922 (EC), S. aureus 27660 (SA), E. faecalis 29212 (EF), P. aeruginosa 10145 (PA), and K. pneumoniae 13883 (KP). Cytotoxicity (EC50) was determined against mouse 3T3 fibroblasts, human transformed liver HepG2 cells, and human oral keratinocyte cell line, OKF6/TERT using an MTS viability assay. Candida IC50s<10 μg/mL, MICs<5 μg/mL and cytotoxicity EC50s>100 μM are indicated in green. MICs>5 μg/mL and cytotoxicity EC50s<100 μM are indicated in red.
(§2) CLSI conditions Bacteria strains: clinical isolates; yeast strains: C. dubliniensis (NCPF3949), C. glabrata (ATCC 90030), C. krusei (ATCC 6258), C. parapsilosis (ATCC 22019), and C. tropicalis (ATCC 750). Cytotoxicity (EC50) was determined against mouse 3T3 fibroblasts, human transformed liver HepG2 cells, and human oral keratinocyte cell line, OKF6/TERT using an MTS viability assay.

Row | Compound | IC50 [µM]
8 | NCCCOc1cc(OCCCN)cc(-c2ccc3c(c2)c2cc(-c4cc(OCCCN)cc(OCCCN)c4)ccc2n3CCCN)c1 [Compound 135] | 766

Test system: C. albicans GDH2346
Test: Candida MIC, CLSI M27-A3
Format: cell-based
Conditions: Candida albicans, GDH2346; 50% human serum; read-out: MIC C. albicans GDH2346 + 50% HS
Experimental: (§3) Candida MIC assays were determined in accordance with CLSI guidelines M27-A3 using a clinically isolated C. albicans strain, GDH2346.50% human serum was added to determine activity in the presence of serum.

Row | Compound | MIC [mg/L]
9 | NCCCOc1cc(OCCCN)cc(-c2ccc3c(c2)c2cc(-c4cc(OCCCN)cc(OCCCN)c4)ccc2n3CCCN)c1 [Compound 135] | 2

Same assay, conditions: Candida albicans, GDH2346; Table 5; read-out: MIC C. albicans

Row | Compound | MIC [mg/L]
10 | NCCCOc1cc(OCCCN)cc(-c2ccc3c(c2)c2cc(-c4cc(OCCCN)cc(OCCCN)c4)ccc2n3CCCN)c1 [Compound 135] | 4 (≈ 5.98 µM)

Same assay, conditions: Candida albicans, GDH2346; without serum; read-out: MIC C. albicans GDH2346

Row | Compound | MIC [mg/L]
11 | NCCCOc1cc(OCCCN)cc(-c2ccc3c(c2)c2cc(-c4cc(OCCCN)cc(OCCCN)c4)ccc2n3CCCN)c1 [Compound 135] | 4 (≈ 5.98 µM)

Test system: C. dubliniensis (NCPF3949)
Test: Yeast MIC
Format: cell-based
Conditions: Candida dubliniensis, NCPF3949; 50% human serum; read-out: MIC C. dubliniensis + 50% HS
Experimental: as §3, §2

Row | Compound | MIC [mg/L]
12 | NCCCOc1cc(OCCCN)cc(-c2ccc3c(c2)c2cc(-c4cc(OCCCN)cc(OCCCN)c4)ccc2n3CCCN)c1 [Compound 135] | 1

Same assay, conditions: Candida dubliniensis, NCPF3949; without serum; read-out: MIC C. dubliniensis

Row | Compound | MIC [mg/L]
13 | NCCCOc1cc(OCCCN)cc(-c2ccc3c(c2)c2cc(-c4cc(OCCCN)cc(OCCCN)c4)ccc2n3CCCN)c1 [Compound 135] | 4 (≈ 5.98 µM)

Same assay, conditions: Table 5

Row | Compound | MIC C. dubliniensis [mg/L]
14 | NCCCOc1cc(OCCCN)cc(-c2ccc3c(c2)c2cc(-c4cc(OCCCN)cc(OCCCN)c4)ccc2n3CCCN)c1 [Compound 135] | 4 (≈ 5.98 µM)

Test system: C. glabrata (ATCC 90030)
Test: Yeast MIC
Format: cell-based
Conditions: Nakaseomyces glabratus, ATCC90030; 50% human serum; read-out: MIC C. glabrata + 50% HS
Experimental: as §3, §2

Row | Compound | MIC [mg/L]
15 | NCCCOc1cc(OCCCN)cc(-c2ccc3c(c2)c2cc(-c4cc(OCCCN)cc(OCCCN)c4)ccc2n3CCCN)c1 [Compound 135] | 2

Same assay, conditions: Nakaseomyces glabratus, ATCC90030; without serum; read-out: MIC C. glabrata

Row | Compound | MIC [mg/L]
16 | NCCCOc1cc(OCCCN)cc(-c2ccc3c(c2)c2cc(-c4cc(OCCCN)cc(OCCCN)c4)ccc2n3CCCN)c1 [Compound 135] | 2 (≈ 2.99 µM)

Same assay, conditions: Table 5

Row | Compound | MIC C. glabrata [mg/L]
17 | NCCCOc1cc(OCCCN)cc(-c2ccc3c(c2)c2cc(-c4cc(OCCCN)cc(OCCCN)c4)ccc2n3CCCN)c1 [Compound 135] | 2 (≈ 2.99 µM)

Test system: C. krusei (ATCC 6258)
Test: Yeast MIC
Format: cell-based
Conditions: Pichia kudriavzevii, ATCC6258
Experimental: as §3, §2

Row | Compound | MIC [mg/L]
18 | NCCCOc1cc(OCCCN)cc(-c2ccc3c(c2)c2cc(-c4cc(OCCCN)cc(OCCCN)c4)ccc2n3CCCN)c1 [Compound 135] | 16 (≈ 23.9 µM)

Test system: C. parapsilosis (ATCC 22019)
Test: Yeast MIC
Format: cell-based
Conditions: Lodderomyces parapsilosis, ATCC22019
Experimental: as §3, §2

Row | Compound | MIC [mg/L]
19 | NCCCOc1cc(OCCCN)cc(-c2ccc3c(c2)c2cc(-c4cc(OCCCN)cc(OCCCN)c4)ccc2n3CCCN)c1 [Compound 135] | 2 (≈ 2.99 µM)

Test system: C. tropicalis (ATCC 750)
Test: Yeast MIC
Format: cell-based
Conditions: Candida tropicalis, ATCC750
Experimental: as §3, §2

Row | Compound | MIC [mg/L]
20 | NCCCOc1cc(OCCCN)cc(-c2ccc3c(c2)c2cc(-c4cc(OCCCN)cc(OCCCN)c4)ccc2n3CCCN)c1 [Compound 135] | 2 to 4 (≈ 2.99 to 5.98 µM)

Test system: A. viscosis
Test: Commensal bacteria MIC, broth microdilution
Format: cell-based
Conditions: not given
Experimental: (§4) Bacterial MICs were determined using a broth microdilution assay under standard
as §2

Row | Compound | MIC [mg/L]
21 | NCCCOc1cc(OCCCN)cc(-c2ccc3c(c2)c2cc(-c4cc(OCCCN)cc(OCCCN)c4)ccc2n3CCCN)c1 [Compound 135] | > 64

Test system: S. salivarius
Test: Commensal bacteria MIC, broth microdilution
Format: cell-based
Conditions: Streptococcus salivarius
Experimental: as §4, §2

Row | Compound | MIC [mg/L]
22 | NCCCOc1cc(OCCCN)cc(-c2ccc3c(c2)c2cc(-c4cc(OCCCN)cc(OCCCN)c4)ccc2n3CCCN)c1 [Compound 135] | > 64
